The source of these data is patent US5567716A, “Trans and cis traumatic acid salts having cicatrizant activity associated to bacteriostatic, antiviral, antibiotic or antifungal activity” (priority 1992, dated 1996).

The subject of one series is Balb/C 3T3 fibroblasts. Briefly: Cell growth of Balb/C 3T3 fibroblasts, crystal violet colorimetry (1.1b). The series is classed as cell-based, Mouse. As to conditions: for cell growth t2/t1: 48 h/24 h, control 76.776. Here is the method:
Mouse Balb/C 3T3 fibroblasts were grown in DMEM medium supplemented with penicillin (100 units/ml) and streptomycin (0.1 mg/ml). For experimental purposes, cells are routinely inoculated in […] diameter culture dishes (5000cells/dish) and cultured overnight.
The compounds to be tested are solubilized in DMEM+10%FCS and DMSO to obtain the final concentration of 10^-5 M, 10^-6 M e 10^-7 M in 0.05% DMSO.
The cells number is measured 4, 24 and 48 hours after seeding. The cell growth is evaluated as t2/t1 ratio (%).

In another series the test system is E.coli ATCC 35218. Briefly: microbe, parasite or virus in culture. It is filed as cell-based. Particulars: Table 2.b)3; test concentrations given in μg/ml. The method, then: (§1) 1. Culture Medium: Tryprone Soy Broth (TBS) - Biogenetics
(§2) Microbic standard strains from American Type Culture Collection (ATCC) were used, chosen among aerobic Gram positive and negative as follows:
(§3) The broths culture of the different species are prepared growing the standard strain (kept in Tryptic Soy Agar (TSA) slent at 5° C.) in Tryptone Soy Broth (TSB) for 12 hours at 37° C. 10 ml are then taken up from each culture, centrifugated for 3 times at 3500 PM washing each time the sediment using 10 ml of sterile saline solution. The sediment is resuspended in the saline solution until obtainment of a turbidity corresponding to the Mc Farland standard solution (the suspension title must be […] UFC/ml).
(§4) The compounds, dissolved as stock solution, were added to test tubes containing 5 ml TBS in order to obtain the desired Final concentration 10000; 5000; 1000; 200; 40; 2; 0.4; 0.05 μg/ml (culture medium maximal dilution=1/10).
(§5) 50 μl of bacterial suspension are added to the tube containing the compounds to be tested and incubated at 37° C.: the densitometric determination is made in comparison with Mc Farland standard solution 24 and 48 hours later.
(§6) After the incubation time the suspensions ape gently agitated; 50 μl of each suspension are inoculated in tubes containing […] of TSB and incubated at 37° C.; the densitometric determination is made 48 hours later.
(§7) BMC is defined by comparison between the two densitometric evaluation.

The test system of another series is B.subtilis ATCC 6633. Briefly: Evaluation of bacteriostatic minimal concentration (BMC). It is filed as cell-based. Particulars: Table 2.b)5; test concentrations given in μg/ml. The method, then: as §1, §2, §3, §4, §5, §6, §7
The subject of another series is Ps.aeruginosa ATCC 35422. The series is described as above. It is filed as cell-based. As to conditions: Table 2.b)1; test concentrations given in μg/ml. Here is the method:
as §1, §2, §3, §4, §5, §6, §7

A further series has as its system C.albicans ATCC 10231. The description is as above. It is filed as cell-based. As to conditions: Table 2.b)6; test concentrations given in μg/ml. Here is the method: as §1, §2, §3, §4, §5, §6, §7
Another series has as its system St.aureus ATCC 65380. The series is described as above. Particulars: Table 2.b)2; test concentrations given in μg/ml. The series is classed as cell-based. Here is the method:
as §1, §2, §3, §4, §5, §6, §7

Series [1] has as its system St.epidermidis ATCC 14990. Described as above. The series is classed as cell-based. As to conditions: Table 2.b)4; test concentrations given in μg/ml. Here is the method: as §1, §2, §3, §4, §5, §6, §7
In a further series the test system is fibroblast cells L929. Briefly: Cell growth of fibroblast L929 culture, crystal violet colorimetry (1.2). As to conditions: in words; for promotion of cell growth (proliferation): benzethonium > gentamycin salt.

Protocol for fibroblast cells L929: Mice fibroblast cells L929, clone derived from connective tissue, are suspended in Eagle's MEM with penicillin (100U/ml)--streptomycin (0.1 mg/ml), seeded in culture dishes (10000cells/dish) and cultured overnight. After 24 hours the culture medium was decantated and the tested compounds are added. The cellular density is measured after 4 (t0) and 24 (t1) hours of incubation at 37° C. in 5% CO2 air by colorimetry using crystal violet (exposure for 15 minutes, room temperature; absorbance 570 nm).
The cells number is measured at 4 (t0) and 24 (t1) hours from the seeding. The cell growth is evaluated at t1/t0 rate (%).

In the case of `CCC[C@@H]1C[C@@H](C(=O)N[C@@H]([C@H]2O[C@H](SC)[C@H](O)[C@@H](O)[C@H]2O)[C@@H](C)O)N(C)C1.O=C(O)/C=C/CCCCCCCCC(=O)O` (relative stereo) [Lincomycin Traumatate, lincomycin trans-traumatate], the “promotion of cell growth” value in the series with Balb/C 3T3 fibroblasts (10^-5 to 10^-7 M, in words, lincomycin > rolitetracycline > erythromycin salt) is “capable to promote cell growth at all the tested doses”. Moreover, the Cell density with Balb/C 3T3 fibroblasts (4 h (t0), 10^-5M, control 0.300) was found to be 0.361; in the series on Balb/C 3T3 fibroblasts (4 h (t0), 10^-6M, control 0.300), 0.352; in the series with Balb/C 3T3 fibroblasts (4 h (t0), 10^-7M, control 0.300) it was 0.384; in the series on Balb/C 3T3 fibroblasts (24 h (t1), 10^-5M, control 0.481), 0.228; with Balb/C 3T3 fibroblasts (24 h (t1), 10^-6M, control 0.481) it was 0.210; in the series with Balb/C 3T3 fibroblasts (24 h (t1), 10^-7M, control 0.481) it was 0.209. Further, the Cell density with Balb/C 3T3 fibroblasts (48 h (t2), 10^-5M, control 0.849) was determined as 0.693; in the series with Balb/C 3T3 fibroblasts (48 h (t2), 10^-6M, control 0.849) it was 0.734; in the series with Balb/C 3T3 fibroblasts (48 h (t2), 10^-7M, control 0.849), 0.705. Besides, the “cell growth t2/t1” value was 195.78% in the series on Balb/C 3T3 fibroblasts (10^-5M), 246.29% with Balb/C 3T3 fibroblasts (10^-6M) and 247.68% in the series with Balb/C 3T3 fibroblasts (10^-7M). Also, in the series on Balb/C 3T3 fibroblasts (in words), the “cell growth effect compared to traumatic acid” value is recorded as “more consistent if compared to the corresponding one of the parent compound traumatic acid”. In addition, the organic solvent solubility (dmso) is over 10000 µg/mL. Further, the solubility in water (water) was over 10000 µg/mL. Further, the “MINIMAL BACTERIAL CONCENTRATION” value in the series with E.coli ATCC 35218 is 10,000.00; in the series with B.subtilis ATCC 6633 it was 1,000.00; in the series with Ps.aeruginosa ATCC 35422 it was 10,000.00; in the series with C.albicans ATCC 10231 it was 10,000.00; with St.aureus ATCC 65380, 10,000.00; in series [1], 200.00.

Consider `CC(C)(C)CC(C)(C)c1ccc(OCCOCC[N+](C)(C)Cc2ccccc2)cc1.CC(C)(C)CC(C)(C)c1ccc(OCCOCC[N+](C)(C)Cc2ccccc2)cc1.O=C([O-])/C=C/CCCCCCCCC(=O)[O-]` [Benzethonium Traumatate, benzethonium trans-traumatate], for which the “MINIMAL BACTERIAL CONCENTRATION” value in the series on E.coli ATCC 35218 is 40.00; in the series with B.subtilis ATCC 6633, 8.00; with Ps.aeruginosa ATCC 35422, 200.00; with C.albicans ATCC 10231 it was 2.00; in the series on St.aureus ATCC 65380, 2.00; in series [1], 2.00. Besides, the “cell growth effect compared to traumatic acid” value in the series with fibroblast cells L929 is listed as “higher than traumatic acid effect”. Further, the “promotion of cell growth (proliferation)” value in the series with fibroblast cells L929 is on record as “capable to promote cell growth (proliferation) according to dose-effect relationship”.

Consider “gentamycin trans-traumatate [Gentamycin Traumatate]”, for which the “MINIMAL BACTERIAL CONCENTRATION” value in the series on E.coli ATCC 35218 is reported as 200.00; in the series on B.subtilis ATCC 6633, 40.00; in the series with Ps.aeruginosa ATCC 35422, 1,000.00; in the series with C.albicans ATCC 10231, > 10,000; in the series with St.aureus ATCC 65380, 1,000.00; in series [1], 200.00. Moreover, in the series on fibroblast cells L929, the “cell growth effect compared to traumatic acid” value was “higher than traumatic acid effect”. In addition, the “promotion of cell growth (proliferation)” value with fibroblast cells L929 was “capable to promote cell growth (proliferation) according to dose-effect relationship”.
